# Measured values reported in ChEMBL document CHEMBL1201862, “PubChem BioAssay data set” (2004).
#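 Method: 48-hour compound exposure of cells in 96-well plates, five concentrations, linear interpolation of endpoints. Abbreviation: GI50, concentration required for 50% inhibition of growth.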 The source made the active and inactive calls. No stated cut-off is given here; in the data, active = GI50 up to about 1.1 µM and inactive = higher.
# Legend:
# Test in all cases: NCI tumour cell line growth inhibition, 48 h
# HT-29 = system: HT-29
# SF-268 = system: SF-268
# M14 = system: M14
# UACC-257 = system: UACC-257
# HCT-15 = system: HCT-15
# NCI-H522 = system: NCI-H522
# RPMI-8226 = system: RPMI-8226
# 786-0 = system: 786-0
# NCI-H226 = system: NCI-H226
# OVCAR-4 = system: OVCAR-4
# LXFL 529 = system: LXFL 529
# UO-31 = system: UO-31
# SR = system: SR
# MOLT-4 = system: MOLT-4
# OVCAR-5 = system: OVCAR-5
Structure (SMILES),GI50 (HT-29),GI50 (SF-268),GI50 (M14),GI50 (UACC-257),GI50 (HCT-15) [µM],GI50 (NCI-H522),GI50 (RPMI-8226),GI50 (786-0),GI50 (NCI-H226),GI50 (OVCAR-4),GI50 (LXFL 529),GI50 (UO-31),GI50 (SR),GI50 (MOLT-4),GI50 (OVCAR-5)
Nc1nc(Cl)cc(NCCCCCCCCNc2cc(Cl)nc(N)n2)n1,12.3 µM (inactive),36.8 µM (inactive),19.2 µM (inactive),2.91 µM (inactive),8.59,1.13 µM (inactive),2.4 µM (inactive),25.8 µM (inactive),6.24 µM (inactive),4.29 µM (inactive),1.86 µM (inactive),22 µM (inactive),3.61 µM (inactive),,
CCCCOC(=O)CNC(=O)OC/C=C/C#CC#C/C=C/COC(=O)NCC(=O)OCCCC,> 10 µM (inactive),> 10 µM (inactive),> 10 µM (inactive),> 10 µM (inactive),> 10,> 10 µM (inactive),> 10 µM (inactive),68.7 µM (inactive),> 10 µM (inactive),> 10 µM (inactive),> 10 µM (inactive),> 10 µM (inactive),> 10 µM (inactive),> 10 µM (inactive),> 10 µM (inactive)
CC(CCCOC(c1ccccc1)(c1ccccc1)c1ccccc1)OC(=O)Nc1ccccc1 (stereo not drawn),13.1 µM (inactive),12.8 µM (inactive),14.2 µM (inactive),15.3 µM (inactive),14.4,11.7 µM (inactive),15 µM (inactive),16.1 µM (inactive),12.6 µM (inactive),12.4 µM (inactive),13.2 µM (inactive),11.6 µM (inactive),18.6 µM (inactive),4.55 µM (inactive),13.7 µM (inactive)
CCNC(=O)COc1ccc(Cl)c(C)c1,> 100 µM (inactive),> 100 µM (inactive),> 100 µM (inactive),> 100 µM (inactive),> 100,> 100 µM (inactive),> 100 µM (inactive),> 100 µM (inactive),> 100 µM (inactive),> 100 µM (inactive),> 100 µM (inactive),> 100 µM (inactive),> 100 µM (inactive),> 100 µM (inactive),> 100 µM (inactive)
Cn1ncc2ccc3[nH]c4ccccc4c(=O)c3c21,35 µM (inactive),28.4 µM (inactive),39.2 µM (inactive),31 µM (inactive),22.9,17.5 µM (inactive),22.5 µM (inactive),36.5 µM (inactive),11.6 µM (inactive),23.9 µM (inactive),30 µM (inactive),15 µM (inactive),29.9 µM (inactive),28.9 µM (inactive),33.6 µM (inactive)
COc1cc(C(C)c2cc3c(cc2OCCOCCOc2cc4c(cc2C(C)c2cc(OC)c(OC)c(OC)c2)OCO4)OCO3)cc(OC)c1OC (stereo not drawn),> 10 µM (inactive),> 10 µM (inactive),> 10 µM (inactive),> 10 µM (inactive),> 10,> 10 µM (inactive),> 100 µM (inactive),> 10 µM (inactive),> 10 µM (inactive),> 10 µM (inactive),> 10 µM (inactive),29.7 µM (inactive),> 10 µM (inactive),> 10 µM (inactive),> 10 µM (inactive)
O=C(/C(=C/c1ccc(Cl)cc1)c1ccccc1)c1ccccc1,18 µM (inactive),18.2 µM (inactive),16.3 µM (inactive),13.6 µM (inactive),15.4,14.2 µM (inactive),18.5 µM (inactive),22.3 µM (inactive),17.1 µM (inactive),18 µM (inactive),15.9 µM (inactive),27 µM (inactive),19.9 µM (inactive),17.8 µM (inactive),22.6 µM (inactive)
